Data reported in PubChem BioAssay AID1963963 (Molecular Pharmacology Branch, DTP, NCI, 2024).

Test system: 958667-338-R-J2-PDC tumor spheroids viability
Test: Anticancer human tumor 958667-338-R-J2-PDC patient-derived colon adenocarcinoma cell line growth inhibition [PI3K]
Settings: spheroids with HUVEC and MSC; for IC50: curve of first compound; for viability, T/C: stronger effect = lower value
Outline: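 Combination activity was assessed by viability in multicellular tumor spheroids carrying HUVEC and MSC components. Agents were tested with PI3K inhibitors from a Cmax-based top dose (or 10 microM) downward in half-log increments.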

[1] = second compound 0.0316 µM, first compound 0.0316 µM
[2] = second compound 0.0316 µM, first compound 0.1 µM
[3] = second compound 0.0316 µM, first compound 0.316 µM
[4] = second compound 0.0316 µM, first compound 1 µM
[5] = second compound 0.0316 µM, first compound 3.16 µM
[6] = second compound 0.0316 µM, first compound 10 µM
[7] = second compound 0.1 µM, first compound 0.0316 µM
[8] = second compound 0.1 µM, first compound 0.1 µM
[9] = second compound 0.1 µM, first compound 0.316 µM
[10] = second compound 0.1 µM, first compound 1 µM
[11] = second compound 0.1 µM, first compound 3.16 µM
[12] = second compound 0.1 µM, first compound 10 µM
[13] = second compound 0.316 µM, first compound 0.0316 µM
[14] = second compound 0.316 µM, first compound 0.1 µM
[15] = second compound 0.316 µM, first compound 0.316 µM
[16] = second compound 0.316 µM, first compound 1 µM
[17] = second compound 0.316 µM, first compound 3.16 µM
[18] = second compound 0.316 µM, first compound 10 µM
[19] = second compound 1 µM, first compound 0.0316 µM
[20] = second compound 1 µM, first compound 0.1 µM
[21] = second compound 1 µM, first compound 0.316 µM
[22] = second compound 1 µM, first compound 1 µM
[23] = second compound 1 µM, first compound 3.16 µM
[24] = second compound 1 µM, first compound 10 µM
[25] = second compound 3.16 µM, first compound 0.0316 µM
[26] = second compound 3.16 µM, first compound 0.1 µM
[27] = second compound 3.16 µM, first compound 0.316 µM
[28] = second compound 3.16 µM, first compound 1 µM
[29] = second compound 3.16 µM, first compound 3.16 µM
[30] = second compound 3.16 µM, first compound 10 µM
[31] = second compound 10 µM, first compound 0.0316 µM
[32] = second compound 10 µM, first compound 0.1 µM
[33] = second compound 10 µM, first compound 0.316 µM
[34] = second compound 10 µM, first compound 1 µM
[35] = second compound 10 µM, first compound 3.16 µM
[36] = second compound 10 µM, first compound 10 µM
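Further: spheroids exposed to compounds for seven days before readout.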

## C=CC(=O)N1CCN(c2nc(=O)n(-c3c(C)ccnc3C(C)C)c3nc(-c4c(O)cccc4F)c(F)cc23)C(C)C1 (stereo unspecified) + CC(Nc1ccc2c(c1)OCCn1cc(N3C(=O)OCC3C(F)F)nc1-2)C(N)=O
Second compound 0.00316 µM
  IC50: > 10 µM
Second compound 0.01 µM
  IC50: > 10 µM
Second compound 0.0316 µM
  IC50: > 10 µM
Second compound 0.1 µM
  IC50: > 10 µM
Second compound 0.316 µM
  IC50: > 10 µM
Second compound 1 µM
  IC50: > 10 µM
Second compound 0.00316 µM, first compound 0.0316 µM
  viability, T/C: 85.9%
Second compound 0.00316 µM, first compound 0.1 µM
  viability, T/C: 112%
Second compound 0.00316 µM, first compound 0.316 µM
  viability, T/C: 82.4%
Second compound 0.00316 µM, first compound 1 µM
  viability, T/C: 112%
Second compound 0.00316 µM, first compound 3.16 µM
  viability, T/C: 101%
Second compound 0.00316 µM, first compound 10 µM
  viability, T/C: 111%
Second compound 0.01 µM, first compound 0.0316 µM
  viability, T/C: 88.2%
Second compound 0.01 µM, first compound 0.1 µM
  viability, T/C: 100%
Second compound 0.01 µM, first compound 0.316 µM
  viability, T/C: 101%
Second compound 0.01 µM, first compound 1 µM
  viability, T/C: 102%
Second compound 0.01 µM, first compound 3.16 µM
  viability, T/C: 115%
Second compound 0.01 µM, first compound 10 µM
  viability, T/C: 94.5%
[1]
  viability, T/C: 87.3%
[2]
  viability, T/C: 96.4%
[3]
  viability, T/C: 88%
[4]
  viability, T/C: 87.3%
[5]
  viability, T/C: 89.7%
[6]
  viability, T/C: 98.3%
[7]
  viability, T/C: 80.5%
[8]
  viability, T/C: 88.8%
[9]
  viability, T/C: 101%
[10]
  viability, T/C: 86.3%
[11]
  viability, T/C: 96.7%
[12]
  viability, T/C: 99.3%
[13]
  viability, T/C: 58.2%
[14]
  viability, T/C: 62.7%
[15]
  viability, T/C: 65.2%
[16]
  viability, T/C: 75.2%
[17]
  viability, T/C: 72.4%
[18]
  viability, T/C: 70.7%
[19]
  viability, T/C: 57.2%
[20]
  viability, T/C: 55.2%
[21]
  viability, T/C: 75.1%
[22]
  viability, T/C: 62.2%
[23]
  viability, T/C: 61.3%
[24]
  viability, T/C: 60.4%

## CC1(C)CCC(CN2CCN(c3ccc(C(=O)NS(=O)(=O)c4ccc(NCC5CCOCC5)c([N+](=O)[O-])c4)c(Oc4cnc5[nH]ccc5c4)c3)CC2)=C(c2ccc(Cl)cc2)C1 + CC(Nc1ncnc2nc[nH]c12)c1cc2cccc(Cl)c2c(=O)n1-c1ccccc1
Second compound 0.0316 µM
  IC50: > 10 µM
Second compound 0.1 µM
  IC50: > 10 µM
Second compound 0.316 µM
  IC50: > 10 µM
Second compound 1 µM
  IC50: > 10 µM
Second compound 3.16 µM
  IC50: > 10 µM
Second compound 10 µM
  IC50: > 10 µM
[1]
  viability, T/C: 107%
[2]
  viability, T/C: 93.6%
[3]
  viability, T/C: 101%
[4]
  viability, T/C: 93%
[5]
  viability, T/C: 119%
[6]
  viability, T/C: 69.9%
[7]
  viability, T/C: 96.3%
[8]
  viability, T/C: 102%
[9]
  viability, T/C: 90.6%
[10]
  viability, T/C: 94.6%
[11]
  viability, T/C: 107%
[12]
  viability, T/C: 51.2%
[13]
  viability, T/C: 101%
[14]
  viability, T/C: 106%
[15]
  viability, T/C: 104%
[16]
  viability, T/C: 116%
[17]
  viability, T/C: 105%
[18]
  viability, T/C: 80.3%
[19]
  viability, T/C: 90.1%
[20]
  viability, T/C: 96.2%
[21]
  viability, T/C: 100%
[22]
  viability, T/C: 100%
[23]
  viability, T/C: 101%
[24]
  viability, T/C: 76.8%
[25]
  viability, T/C: 93.4%
[26]
  viability, T/C: 108%
[27]
  viability, T/C: 94.4%
[28]
  viability, T/C: 93.1%
[29]
  viability, T/C: 99.9%
[30]
  viability, T/C: 54.5%
[31]
  viability, T/C: 93.2%
[32]
  viability, T/C: 84.3%
[33]
  viability, T/C: 101%
[34]
  viability, T/C: 88%
[35]
  viability, T/C: 97.7%
[36]
  viability, T/C: 68.2%

## C#Cc1c(F)ccc2cc(O)cc(-c3ncc4c(N5CC6CCC(C5)N6)nc(OCC56CCCN5CC(F)C6)nc4c3F)c12 (stereo unspecified) + Cc1nc(NC(=O)N2CCCC2C(N)=O)sc1-c1ccnc(C(C)(C)C(F)(F)F)c1
Second compound 0.0316 µM
  IC50: > 10 µM
Second compound 0.1 µM
  IC50: > 10 µM
Second compound 0.316 µM
  IC50: > 10 µM
Second compound 1 µM
  IC50: 4.15 µM
Second compound 3.16 µM
  IC50: 1.79 µM
Second compound 10 µM
  IC50: 0.368 µM
[1]
  viability, T/C: 82.9%
[2]
  viability, T/C: 83.3%
[3]
  viability, T/C: 79.5%
[4]
  viability, T/C: 95.8%
[5]
  viability, T/C: 67.7%
[6]
  viability, T/C: 70.6%
[7]
  viability, T/C: 70.9%
[8]
  viability, T/C: 79.6%
[9]
  viability, T/C: 93.5%
[10]
  viability, T/C: 87.1%
[11]
  viability, T/C: 76.8%
[12]
  viability, T/C: 57.3%
[13]
  viability, T/C: 93.9%
[14]
  viability, T/C: 109%
[15]
  viability, T/C: 69%
[16]
  viability, T/C: 56.2%
[17]
  viability, T/C: 82.1%
[18]
  viability, T/C: 52.5%
[19]
  viability, T/C: 82.8%
[20]
  viability, T/C: 82.6%
[21]
  viability, T/C: 67.3%
[22]
  viability, T/C: 65.7%
[23]
  viability, T/C: 52%
[24]
  viability, T/C: 41.4%
[25]
  viability, T/C: 72.1%
[26]
  viability, T/C: 59.9%
[27]
  viability, T/C: 75.2%
[28]
  viability, T/C: 50.2%
[29]
  viability, T/C: 46.1%
[30]
  viability, T/C: 29.4%
[31]
  viability, T/C: 60.1%
[32]
  viability, T/C: 47.5%
[33]
  viability, T/C: 43.9%
[34]
  viability, T/C: 49.6%
[35]
  viability, T/C: 34.1%
[36]
  viability, T/C: 1.14%
